Results: US11339191B2, “Stapled peptides and uses thereof” (Universite de Montpellier, priority 2016, dated 2022)
Bridge positions count the residues as written; N and C are the ends. Square brackets hold non-standard residues; d marks the D form. S5 = C=CCCC[C@](C)(N)C(=O)O; Nle = CCCC[C@H](N)C(=O)O

Tests used:
Assay type in all cases: cell-based, human
[1] = test system: IL-6; assay: LPS-stimulated THP-1 monocytes, IL-6 in culture supernatant by ELISA; settings: for effect on the expression level of IL-6: curative condition (peptide 6 hours after LPS), 1 to 20 μM; for IL-6 expression compared with the S1 peptide: curative condition; for efficacy on IL-6 compared with the IRAK2 peptide (IRAK2-S1): 10 to 20 μM
Procedure: (§1) THP1 cells were cultured (300 000 cells/well) in RPMI 1640 supplemented with 10% fetal calf serum, 1% penicillin/streptomycin and L-glutamine. The cells were treated with 0.1 μg/ml LPS for 6 h for TNFα, and 24 h for IL-6 and IL-1β. The peptides were solubilized in 4% DMSO and used at 5 and 20 μM. The peptides were added at the same time as the LPS. The determination of the cytokines in the culture supernatants was carried out with the specific ELISA kits (eBioscience).
(§2) For all conditions tested, THP-1 monocytes were cultured (300 000 cells/well) in RPMI with 10% fetal calf serum; 1% penicillin/streptomycin and L-glutamine. THP-1 were treated with 0.1 μg/mL of LPS for 24 hours, stapled-peptides IRAK2-S1 et IRAKM-S1 were used at 1 to 20 μM and added at the same time for condition A, 6 hours before LPS for condition B and 6 hours after LPS for condition C. The quantification of cytokine in the culture supernatants was carried out with specific IL-6 and TNFα ELISA (eBioscience).
(§3) For all conditions tested, THP-1 monocytes were cultured (300 000 cells/well) in RPMI with 10% fetal calf serum; 1% penicillin/streptomycin and L-glutamine. THP-1 were treated with 0.1 μg/mL of LPS for 24 hours, stapled-peptides IRAK2-S1, IRAK2-JMV6649, IRAKM-S1 and IRAKM-JMV6650 were used at 10 to 20 μM and added at the same time for «Simultaneous» condition, 6 hours before LPS for «preventive» condition and 6 hours after LPS for «curative» condition. Using ELISA (eBioscience), IL-6 and TNFα quantification was carried out in monocyte culture supernatants.

[2] = test system: THP-1 cells; assay: Viability and morphology of PMA-treated THP-1 cells with peptide; settings: THP-1, peptide 20 μM
Procedure: (§4) We stimulated the THP-1 monocytes with 0.1 μg/ml PMA for 48 h to induce differentiation into macrophages, and treated with 20 μM stapled peptide (IRAK2-S1 or Mock-S).
(§5) THP1 cells were cultured (300,000 cells/well) in RPMI 1640 supplemented with 10% fetal calf serum, 1% penicillin/streptomycin and L-glutamine. The cells were treated with 0.1 μg/ml of PMA for 48 h. The peptides were solubilized in 4% DMSO and used at 20 μM. The peptides are added together with the PMA. Total RNA of the cells were extracted by the miRNeasy kit (Qiagen), the level of expression of IL-1β was measured by RT-qPCR technology by Taqman assays (lifetechnology)
(§6) After extraction of the RNAs, we quantified by RT-qPCR the level of expression of the RNA of IL-1β (FIG. 4A). Using ELISA method, the cytokine secretion was measured in the supernatant of the treated THP-1 (FIG. 4B). The IRAK2-S1 peptide was able to block the expression and production of IL-1β at 20 μM. At this concentration, the peptide appears to have no effect on viability and morphology of the cells.

[3] = test system: TNFα; assay: LPS-stimulated THP-1 monocytes, TNFα in culture supernatant by ELISA
Procedure: as §1, §2, §3

[4] = test system: IL-1β; assay: LPS-stimulated THP-1 monocytes, IL-1β in culture supernatant by ELISA; settings: THP1, LPS 0.1 μg/ml 24 h, peptide 5 and 20 μM added at the same time as LPS
Procedure: as §1

[5] = test system: CHOP, BIP and GRP94 genes; assay: Tunicamycin-induced ER stress in THP-1 cells, expression of the CHOP, BIP and GRP94 genes by RT-qPCR; settings: THP-1, tunicamycin 0.1 μg/ml
Procedure: To assess the specificity of recognition of stapled peptides IRAK2, we induced ER stress in human monocytic cell line THP-1 by treatment with tunicamycin (0.1 μg/ml) for 8 h and 24 h.
THP-1 cells were cultured (300 000 cells/well) in RPMI 1640 supplemented with 10% fetal calf serum, 1% penicillin/streptomycin and L-glutamine. The cells were treated with 0.1 μg/ml tunicamycin for 30 min, 8 H or 24 H. The peptide was solubilized in 4% DMSO and used at concentrations ranging from 1 to 20 μM. Total cell RNAs were extracted with the miRNeasy kit (Qiagen), the expression levels of the genes were measured by RT-qPCR with Taqman assays (Lifetechnology) technology.
We have shown that IRAK2 is the main kinase expressed at 8 h, compared to IRAK1 (FIG. 3A). Measurement of the expression of the CHOP, BIP and GRP94 genes validated the activation of the ER stress at 8H as expected according to literature (FIG. 3B). In this study the peptides IRAK2 Li, IRAKM Li, IRAK2 S1, IRAK2 S2 (Li for linear peptide and S1 and S2 for stapled peptide) were tested. […] This inhibition was specific since, stapled peptide concentration of 20 μM, control stapled peptide (Mock S) has no effect (FIG. 3D).

[6] = test system: IL-1β; assay: PMA-induced macrophage differentiation of THP-1 monocytes, IL-1β RNA (RT-qPCR) and secretion (ELISA); settings: THP-1, PMA 0.1 μg/ml 48 h, peptide 20 μM
Procedure: as §4, §5, §6

[7] = preventive condition (peptide 6 hours before LPS), 10 μM
[8] = preventive condition (peptide 6 hours before LPS), 20 μM
[9] = simultaneous condition, LPS 0.1 μg/mL 24 h, peptide 10 and 20 μM
[10] = curative condition (peptide 6 hours after LPS), 10 μM
[11] = curative condition (peptide 6 hours after LPS), 20 μM
[12] = simultaneous condition, peptide 20 μM

“Ac-S5-REL-S5-WWWGBRQA-NH2 (Ac-[S5]REL[S5]WWWG[Nle]RQA-NH2; staple 1-5; SMILES CCCC[C@H](NC(=O)CNC(=O)[C@H](Cc1c[nH]c2ccccc12)NC(=O)[C@H](Cc1c[nH]c2ccccc12)NC(=O)[C@H](Cc1c[nH]c2ccccc12)NC(=O)[C@]1(C)CCCC=CCCC[C@](C)(NC(C)=O)C(=O)N[C@@H](CCCNC(=N)N)C(=O)N[C@@H](CCC(=O)O)C(=O)N[C@@H](CC(C)C)C(=O)N1)C(=O)N[C@@H](CCCNC(=N)N)C(=O)N[C@@H](CCC(N)=O)C(=O)N[C@@H](C)C(N)=O) [IRAK2-S1]” was tested, and the “IL-6 secreted after LPS stimulation” value ([1]; THP1, LPS 0.1 μg/ml 24 h, peptide 5 and 20 μM added at the same time as LPS) was “reduced the expression of the 3 cytokines in a dose-dependent manner”, the “effect on the expression level of IL-6” value [1] was “no effect” and the “inhibition of IL-6 expression” value [1, 7] was “No inhibition”. The “inhibition of IL-6 secretion” value [1, 8] was 15 to 20%, the “inhibition of IL-6 secretion” value [1, 9] was “significantly inhibit” and the “effect on viability and morphology of the cells” value [2] was “no effect”. For the same substance, the “TNFα secreted after LPS stimulation” value ([3]; THP1, LPS 0.1 μg/ml 6 h, peptide 5 and 20 μM added at the same time as LPS) was “reduced the expression of the 3 cytokines in a dose-dependent manner”, the “inhibition of TNFα secretion” value [3, 10] was no more than 30% and the “inhibition of TNFα secretion” value [3, 11] was no more than 70%. For the same substance, the “inhibition of TNFα expression” value [3, 7] was “No inhibition”, the “inhibition of TNFα secretion” value [3, 8] was 15 to 20% and the “inhibition of TNFα secretion” value [3, 9] was “significantly inhibit”. The “IL-1β secreted after LPS stimulation” value [4] was “reduced the expression of the 3 cytokines in a dose-dependent manner”, the “expression of CHOP, GRP94 and BIP (ER stress)” value ([5]; simultaneous treatment, peptide 1 to 20 μM, RT-qPCR) was “blocked in a dose-dependent manner” and the “production of IL-1β in supernatant” value ([6]; ELISA) was “able to block”. For the same substance, the “expression of IL-1β RNA” value ([6]; RT-qPCR) was “able to block”.

In the case of “Ac-KSG-S5-REL-S5-WSWAQKNKTI-NH2 (Ac-KSG[S5]REL[S5]WSWAQKNKTI-NH2; staple 4-8; SMILES CC[C@H](C)[C@H](NC(=O)[C@@H](NC(=O)[C@H](CCCCN)NC(=O)[C@H](CC(N)=O)NC(=O)[C@H](CCCCN)NC(=O)[C@H](CCC(N)=O)NC(=O)[C@H](C)NC(=O)[C@H](Cc1c[nH]c2ccccc12)NC(=O)[C@H](CO)NC(=O)[C@H](Cc1c[nH]c2ccccc12)NC(=O)[C@]1(C)CCCC=CCCC[C@](C)(NC(=O)CNC(=O)[C@H](CO)NC(=O)[C@H](CCCCN)NC(C)=O)C(=O)N[C@@H](CCCNC(=N)N)C(=O)N[C@@H](CCC(=O)O)C(=O)N[C@@H](CC(C)C)C(=O)N1)[C@@H](C)O)C(N)=O) [IRAKM-JMV6649]”, the “IL-6 expression compared with the S1 peptide” value ([1]; 20 μM) was “not significant”, the “additional inhibition of IL-6 expression compared with IRAKM-S1” value ([1]; preventive condition, 10 μM) was 60% and the “additional inhibition of IL-6 expression compared with IRAKM-S1” value ([1]; preventive condition, 20 μM) was 80%. For the same substance, the “decrease of IL-6 secretion compared with IRAKM-S1” value ([1]; simultaneous condition, 20 μM) was “more than 70%”, the “increase of inhibition of TNFα expression compared with IRAKM-S1” value ([3]; curative condition, 20 μM) was “not significant” and the “greater inhibition of TNFα expression compared with IRAKM-S1” value ([3]; preventive condition, 10 μM) was 20%. For the same substance, the “additive inhibitory effect on TNFα expression compared with IRAKM-S1” value ([3]; simultaneous condition, 20 μM) was “no additive inhibitory effect”.

In the case of “Ac-VSI-S5-REL-S5-WWWGBRQATV-NH2 (Ac-VSI[S5]REL[S5]WWWG[Nle]RQATV-NH2; staple 4-8; SMILES CCCC[C@H](NC(=O)CNC(=O)[C@H](Cc1c[nH]c2ccccc12)NC(=O)[C@H](Cc1c[nH]c2ccccc12)NC(=O)[C@H](Cc1c[nH]c2ccccc12)NC(=O)[C@]1(C)CCCC=CCCC[C@](C)(NC(=O)[C@@H](NC(=O)[C@H](CO)NC(=O)[C@@H](NC(C)=O)C(C)C)[C@@H](C)CC)C(=O)N[C@@H](CCCNC(=N)N)C(=O)N[C@@H](CCC(=O)O)C(=O)N[C@@H](CC(C)C)C(=O)N1)C(=O)N[C@@H](CCCNC(=N)N)C(=O)N[C@@H](CCC(N)=O)C(=O)N[C@@H](C)C(=O)N[C@H](C(=O)N[C@H](C(N)=O)C(C)C)[C@@H](C)O) [IRAK2-JMV6650]”, the “IL-6 expression compared with the S1 peptide” value ([1]; 20 μM) was “acts as IRAK2-S1”, the “efficacy on IL-6 compared with the IRAK2 peptide (IRAK2-S1)” value ([1]; preventive condition, data not shown) was “No more efficacy” and the “efficacy on IL-6 compared with the IRAK2 peptide (IRAK2-S1)” value ([1]; simultaneous condition) was “No more efficacy”. The “additional inhibition of TNFα production compared with the S1 peptide” value ([3]; curative condition, 10 to 20 μM) was “not significant”, the “efficacy on TNFα compared with the IRAK2 peptide (IRAK2-S1)” value ([3]; preventive condition, 10 to 20 μM, data not shown) was “No more efficacy” and the “efficacy on TNFα compared with the IRAK2 peptide (IRAK2-S1)” value ([3]; simultaneous condition, 10 to 20 μM) was “No more efficacy”.

“Ac-ITF-S5-NLL-S5-YYGP-NH2 (Ac-ITF[S5]NLL[S5]YYGP-NH2; staple 4-8; SMILES CC[C@H](C)[C@H](NC(C)=O)C(=O)N[C@H](C(=O)N[C@@H](Cc1ccccc1)C(=O)N[C@@]1(C)CCCC=CCCC[C@@](C)(C(=O)N[C@@H](Cc2ccc(O)cc2)C(=O)N[C@@H](Cc2ccc(O)cc2)C(=O)NCC(=O)N2CCC[C@H]2C(N)=O)NC(=O)[C@H](CC(C)C)NC(=O)[C@H](CC(C)C)NC(=O)[C@H](CC(N)=O)NC1=O)[C@@H](C)O) [Mock-S, reference compound]” was tested, and the “inhibition of IL-6 expression” value [1, 12] was 15 to 20%, the “inhibition of TNFα expression” value [3, 12] was 15 to 20% and the “expression of ER stress genes (specificity control)” value ([5]; peptide 20 μM) was “no effect”.

With “Ac-KSG-S5-REL-S5-WSWAQK-NH2 (Ac-KSG[S5]REL[S5]WSWAQK-NH2; staple 4-8; SMILES CC(=O)N[C@@H](CCCCN)C(=O)N[C@@H](CO)C(=O)NCC(=O)N[C@@]1(C)CCCC=CCCC[C@@](C)(C(=O)N[C@@H](Cc2c[nH]c3ccccc23)C(=O)N[C@@H](CO)C(=O)N[C@@H](Cc2c[nH]c3ccccc23)C(=O)N[C@@H](C)C(=O)N[C@@H](CCC(N)=O)C(=O)N[C@@H](CCCCN)C(N)=O)NC(=O)[C@H](CC(C)C)NC(=O)[C@H](CCC(=O)O)NC(=O)[C@H](CCCNC(=N)N)NC1=O) [IRAKM-S1]” the “effect on the expression level of IL-6” value [1] was “no effect”, the “inhibition of IL-6 secretion” value [1, 8] was 90% and the “inhibition of IL-6 secretion” value [1, 9] was “significantly inhibit”. The “inhibition of IL-6 expression” value [1, 12] was no more than 90%, the “inhibition of TNFα secretion” value [3, 10] was “No inhibition” and the “inhibition of TNFα secretion” value [3, 11] was 15 to 20%. The “inhibition of TNFα secretion” value [3, 8] was 95%, the “inhibition of TNFα secretion” value [3, 9] was “significantly inhibit” and the “inhibition of TNFα expression” value [3, 12] was “up to 95%”.
